The source of these data is PMC12078333, “Pharmacokinetic evaluation and bioavailability of KPT-335 (Verdinexor) in cats” (Frontiers in Veterinary Science, 2025).

A short description of series [1]: Solubility of KPT-335 (pH dependence, unpublished data). In kind it is physicochemical.
For series [2] the following is noted: cited from earlier work.
The nature of the next series: pKa (unpublished data). In kind it is physicochemical. As to conditions: weak base.
For series [3] the following is noted: cat, in vivo. How it is done: Based on the dose administered in dogs, the selection of dosages for evaluating KPT-335 in cats was calculated using the Km factor, which adjusts drug doses across species based on body surface area (BSA) ([16]). […] For oral (p.o.) administration, single doses of 1 mg/kg BW and 2 mg/kg BW were tested across two groups. Additionally, an oral capsule group was administered at 0.2 mg/kg BW. […] The maximum safe dosage for dogs was determined to be 1.75 mg/kg BW, based on dosage conversion, the maximum safe dosage for cats was determined to be 2.33 mg/kg BW. Thus, we categorized the dosages as follows: 2 mg/kg BW was designated as the oral high-dose group, 1 mg/kg BW as the oral medium-dose group, and 0.2 mg/kg BW (1/10 of the recommended dose) as the oral low-dose group. These doses were determined based on the maximum safe dose in dogs and the solubility limitations of the drug. The smallest commercially available tablet contained 2.5 mg of KPT-335 and could not be divided, which meant that only whole tablets could be administered. Consequently, the 0.2 mg/kg BW dose could not be accurately achieved and was excluded from the tablet group trials. Only the 1 mg/kg BW and 2 mg/kg BW doses were included in the tablet groups. […]

Series [4] in a line: Adverse reaction assessment in test cats (body weight, behavior, coat gloss). Particulars: all tested cats, i.v. 1 mg/kg BW and p.o. 0.2–2 mg/kg BW, single dose. In kind it is in vivo. How it is done: In this study, a parallel trial design was employed, 42 adult domestic cats (21 males and 21 females), aged 1 to 2 years and weighing 2.5 ± 0.25 kg. Cats were grouped by random number, with half male and female in each group, and all cats were determined to be systemically healthy during an initial screening visit 1 week prior to the experiment. They were acclimatized to the laboratory environment for 7 days before the study commenced. During this period, they were kept in solitary cages with free access to water. Cats in the fasting group were deprived of food for 12 h prior to and 2 h following drug administration, while those in the feeding group were fed twice a day. Food and water sources were consistent throughout the trail. During and at the end of the experiment, we systematically assessed the adverse reactions by recording parameters such as body weight, behavior, and coat gloss in all test cats both before and after the trial. These observations were conducted to evaluate whether any adverse reactions occurred. All procedures were reviewed and approved by the Institutional Animal Care and Use Committee of China Agricultural University (11305-23-E-002).

Where [5] appears, read: dogs, orally 1.25 mg/kg BW (n = 4) ref 13.
The mark [6] stands for this setting: dogs, orally 1.5 mg/kg BW (n = 4) ref 13.
[7] abbreviates: healthy dogs, phase I study, 1.5 mg/kg BW ref 9.

Read-outs that look alike come from different tables or passages of the source.

What is called Cmax is the maximum level reached in the sampled fluid or tissue. As usually defined, the pKa is the negative logarithm of the acid dissociation constant. Higher therefore signals a weaker acid or stronger base. `O=C(/C=C\n1cnc(-c2cc(C(F)(F)F)cc(C(F)(F)F)c2)n1)NNc1ccccn1` [KPT-335]: in series [1], the aqueous solubility result is given as “low aqueous solubility”. In series [1] (unpublished data), the “lower solubility at pH 3.8 versus pH 1.5” value turned out to be 50 fold. In series [2] (dogs, 1.5 mg/kg BW ref 9, 13), the AUClast is 1800–2,300 h·ng/mL, the Cmax was 250 to 310 ng/mL and the half-life result was “approximately 4 h”. Further, in series [2] (setting [5]), the “mean AUC” value is 1576.6 ng·h/mL and the “mean Cmax” value is listed as 244.8 ng/mL. In series [2] (setting [6]), the “mean AUC” value is 2346.8 ng·h/mL and the “mean Cmax” value was 312 ng/mL. Further, in series [2] (setting [7]), the AUClast is 1760 ± 223 ng·h/mL, the peak concentration (Cmax) is on record as 253 ± 88.3 ng/mL and the T1/2 is listed as 3.88 ± 2.71 h. In “pKa (unpublished data)”, this compound came in with a pKa of 10.6. For the same compound, the maximum safe dosage in series [3] worked out at 2.33 mg/kg BW. For the same compound, the adverse reactions entry in series [4] was “no adverse reactions”.
